From patent US20220053758A1, “Microcapsule With Acetamides And Diflufenican” (Monsanto Technology LLC, priority 2020, published 2022)

Legend:
proso millet (PANMI) = assay: Greenhouse pre-emergent efficacy, Example 3B; format: in vivo, Panicum miliaceum; conditions: both rates tested (½× and 1×)
Text: (§1) ACC, DFF and MRB were used as the commercial products Warrant®, Brodal® and TriCor® DF as described in Example 3A above. Further, also a DFF+MRB pre-mix (200 g/L DFF+400 g/L MRB, suspension concentrate) was used. For GR (glyphosate resistant) palmer amaranth (AMAPA), at 1× rate, all 2- and 3-way treatments provided >95% control. Except for the DFF+MRB pre-mix, these treatments also provided >95% control of GR AMAPA at ½× rate as well. No single active ingredient provided acceptable control of GR AMAPA in this trial.

[1] = tested on: glyphosate resistant Canola (Roundup Ready® Canola); assay: Greenhouse post-emergent efficacy in glyphosate resistant Canola, Example 3C; format: in vivo; conditions: visual rating 14 DAT
Description: ACC and DFF were used as the commercial products Warrant® and Brodal® as described in Example 3A above. The seeds of glyphosate resistant Canola (Roundup Ready® Canola) were planted in 3.5-inches (8.89 cm) square plastic pots filled with a potting media of 75% silt loam and 25% Redi-earth (Sun Gro, Bellevue, Wash.). The temperature conditions were 22° C. day and 17° C. night with 14 hours of supplemental light (approximately 600 microeinsteins). The pots are placed in a controlled-environment greenhouse equipped with sub-irrigation. The treatments applications were applied to the plants with a track sprayer generally using a TTI110015 nozzle spray nozzle. The spray nozzle was 16 inches (40.64 cm) above the top of the plants and a spray volume rate of about 140 L/ha was applied. The plants were sprayed when canola was at the V3-V4 growth stage. Visual ratings (% control) were collected at 14 DAT.

[2] = tested on: GR (glyphosate resistant) palmer amaranth (AMAPA); assay: Greenhouse pre-emergent efficacy, Example 3B; format: in vivo, Amaranthus palmeri; conditions: rates tested (½× and 1×)
Text: as §1

[3] = tested on: AMAPA (WR-2015-008), resistant against glyphosate and metribuzin (PSII-inhibitor), PPO-, HPPD- and ALS-inhibitor herbicides; assay: Greenhouse pre-emergent efficacy on multiple resistant AMAPA, Example 3D; format: in vivo, Amaranthus palmeri; conditions: 21 DAT
Description: (§2) Premixes of present disclosure were compared with ACC and DFF used as the commercial products Warrant® and Brodal® as described in Example 3A above, as well as a corresponding tank-mix of ACC+DFF. Two different pre-mix formulations according to the present disclosure were evaluated for pre-emergent efficacy on the following difficult to control multiple resistant palmer amaranth (Amaranthus palmeri, AMAPA) species: AMAPA (WR-2015-002), resistant against glyphosate, PPO-, HPPD- and ALS-inhibitor herbicides; and AMAPA (WR-2015-008), resistant against glyphosate and metribuzin (PSII-inhibitor), PPO-, HPPD- and ALS-inhibitor herbicides.
(§3) At 21 DAT (days after treatment), visual percent control as well as fresh biomass ratings were recorded for all replications. […] Percent control was then calculated based on the respective untreated control plants.

[4] = tested on: AMAPA (WR-2015-002), resistant against glyphosate, PPO-, HPPD- and ALS-inhibitor herbicides; assay: as above; format: in vivo, Amaranthus palmeri; conditions: 21 DAT
Description: as §2, §3

[5] = 25° C.; cited from earlier work
[6] = group line over the three rates (1×, ½×, ¼×)

Structure (SMILES) | control of proso millet (PANMI), in words (proso millet (PANMI)) | Canola Crop Injury Average [1, 6] [%] | Canola Crop Injury Average ([1]; ¼× (ACC 315, DFF 38 g ai/ha)) [%] | Canola Crop Injury Average ([1]; ½× (ACC 630, DFF 75 g ai/ha)) [%] | control of GR AMAPA, in words [2] | Injury Average AMAPA (WR-2015-008) ([3]; 1× (ACC 1260, DFF 150 g ai/ha)) [%] | Injury Average AMAPA (WR-2015-008) ([3]; ½× (ACC 630, DFF 75 g ai/ha)) [%] | Injury Average AMAPA (WR-2015-002) ([4]; 1× (ACC 1260, DFF 150 g ai/ha)) [%] | Injury Average AMAPA (WR-2015-002) ([4]; ½× (ACC 630, DFF 75 g ai/ha)) [%] | water solubility [5]
CCOCN(C(=O)CCl)c1c(C)cccc1CC [ACC, 2-chloro-N-(ethoxymethyl)-N-(2-ethyl-6-methylphenyl)acetamide] | weak control | 6.7 | 0.0 | 2.5 | weak control | 73.8 | 60.6 | 81.6 | 61.9 | –
O=C(Nc1ccc(F)cc1F)c1cccnc1Oc1cccc(C(F)(F)F)c1 [DFF, N-(2,4-difluorophenyl)-2-[3-(trifluoromethyl)phenoxy]-3-pyridinecarboxamide] | weak control | 18.3 | 3.1 | 13.8 | weak control | 75.6 | 65.6 | 70.6 | 51.3 | about 50 μg/L
